Laboratory results taken from patent publication US20160237045A1, “SUBSTITUTED PHENYLALANINE DERIVATIVES” (BAYER PHARMA AKTIENGESELLSCHAFT, priority 2013, published 2016).
Structures can show the parent of a compound that is named as a salt.

Key:
[1] = test system: plasma; test: Determination of anticoagulatory activity: activated partial thromboplastin time (aPTT) in plasma; settings: in vitro in human and animal plasma (species of Table B not stated); C.K. Prest kit; 37° C., 3 minutes incubation
Description: a.4) Determination of Anticoagulatory Activity
The anticoagulatory activity of the test substances is determined in vitro in human and animal plasma (for example mouse, rat, rabbit, pig and dog plasma). To this end, blood is drawn off in a mixing ratio of sodium citrate/blood of 1:9 using a 0.11 molar sodium citrate solution as receiver. Immediately after the blood has been drawn off, it is mixed thoroughly and centrifuged at about 4000 g for 15 minutes. The supernatant is pipetted off.
The activated partial thromboplastin time (aPTT) is determined in the presence of varying concentrations of test substance or the corresponding solvent using a commercial test kit (C.K. Prest from Diagnostica Stago). The test compounds are incubated with the plasma and the PTT reagent (cephalin, kaolin) at 37° C. for 3 minutes. Coagulation is then started by addition of a 25 mM aqueous calcium chloride solution, and the time when coagulation occurs is determined. The concentration of test substance which brings about a 1.5-fold extension of the aPTT is determined.

[2] = target: T1, human factor XIa (Homo sapiens, UniProt P03951); test: Measurement of FXIa inhibition (fluorogenic peptide substrate Boc-Glu(OBzl)-Ala-Arg-AMC); type: biochemical; settings: factor XIa from Kordia 0.45 nM; 15 min preincubation; 30 min at 22° C.; fluorescence of AMC
T1 construct: purchased Kordia
T1 sequence (P03951 388-625 limits assumed): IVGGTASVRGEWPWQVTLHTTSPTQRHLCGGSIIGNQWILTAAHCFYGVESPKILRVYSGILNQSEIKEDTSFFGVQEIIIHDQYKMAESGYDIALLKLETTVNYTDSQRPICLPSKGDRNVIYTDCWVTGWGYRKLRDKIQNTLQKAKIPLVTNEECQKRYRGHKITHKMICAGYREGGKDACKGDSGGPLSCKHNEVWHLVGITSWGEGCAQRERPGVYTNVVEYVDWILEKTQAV
T1 sequence (P03951 19-387 partner limits assumed): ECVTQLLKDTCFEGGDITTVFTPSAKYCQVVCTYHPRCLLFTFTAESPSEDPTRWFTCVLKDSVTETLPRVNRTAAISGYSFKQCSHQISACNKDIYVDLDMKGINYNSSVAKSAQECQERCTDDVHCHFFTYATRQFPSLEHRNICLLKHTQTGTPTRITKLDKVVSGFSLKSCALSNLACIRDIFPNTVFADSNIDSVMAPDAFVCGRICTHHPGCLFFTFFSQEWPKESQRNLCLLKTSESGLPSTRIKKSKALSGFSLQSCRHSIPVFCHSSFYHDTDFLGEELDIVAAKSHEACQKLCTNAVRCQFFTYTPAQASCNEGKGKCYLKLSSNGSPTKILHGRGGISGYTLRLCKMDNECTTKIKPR
Description: a.1) Measurement of FXIa Inhibition
The factor XIa inhibition of the substances according to the invention is determined using a biochemical test system which utilizes the reaction of a peptidic factor XIa substrate to determine the enzymatic activity of human factor XIa. Here, factor XIa cleaves from the peptic factor XIa substrate the C-terminal aminomethylcoumarin (AMC), the fluorescence of which is measured. The determinations are carried out in microtitre plates.
Test substances are dissolved in dimethyl sulphoxide and serially diluted in dimethyl sulphoxide (3000 μM to 0.0078 μM; resulting final concentrations in the test: 50 μM to 0.00013 μM). In each case 1 μl of the diluted substance solutions is placed into the wells of white microtitre plates from Greiner (384 wells). Subsequently, the following are added successively: 20 μl of assay buffer (50 mmol/l Tris buffer pH 7.4; 100 mmol/l sodium chloride; 5 mmol/l calcium chloride; 0.1% bovine serum albumin) and 20 μl of factor XIa from Kordia (0.45 nM in assay buffer). After 15 min of incubation, the enzyme reaction is started by addition of 20 μl of the factor XIa substrate Boc-Glu(OBzl)-Ala-Arg-AMC dissolved in assay buffer (10 μM in assay buffer) from Bachem, the mixture is incubated at room temperature (22° C.) for 30 min and fluorescence is then measured (excitation: 360 nm, emission: 460 nm). The measured emissions of the test batches with test substance are compared to those of control batches without test substance (only dimethyl sulphoxide instead of test substance in dimethyl sulphoxide), and IC50 values are calculated from the concentration/activity relationships.

Row | SMILES | aPTT (concentration of test substance which brings about a 1.5-fold extension of the aPTT) [1] | IC50 [2]
1 | NC[C@H]1CC[C@H](C(=O)N[C@@H](Cc2ccc(-c3ccccc3C(N)=O)cc2)C(=O)Nc2ccc(-c3nc(C(F)(F)C(F)(F)C(=O)O)n[nH]3)cc2)CC1 [Example 15, 3-[5-(4-{[(2S)-2-({[trans-4-(Aminomethyl)cyclohexyl]carbonyl}amino)-3-(2′-carbamoylbiphenyl-4-yl)propanoyl]amino}phenyl)-1H-1,2,4-triazol-3-yl]-2,2,3,3-tetrafluoropropanoic acid hydrochloride] | 0.23 µmol/L | 12 nM
2 | NC[C@H]1CC[C@H](C(=O)N[C@@H](Cc2ccc(-c3ccccc3CN3CCNCC3)cc2)C(=O)Nc2ccc(-c3nnn[nH]3)cc2)CC1 [Example 16, trans-4-(Aminomethyl)-N-[(2S)-1-oxo-3-[2′-(piperazin-1-ylmethyl)biphenyl-4-yl]-1-{[4-(1H-tetrazol-5-yl)phenyl]amino}propan-2-yl]cyclohexanecarboxamide hydrochloride] | 0.08 µmol/L | 6.2 nM
3 | CC(C)Oc1ccccc1-c1ccc(C[C@H](NC(=O)[C@H]2CC[C@H](CN)CC2)C(=O)Nc2ccc(-c3nc(C(F)(F)C(F)(F)C(=O)O)n[nH]3)cc2)cc1 [Example 17, 3-[5-(4-{[(2S)-2-({[trans-4-(Aminomethyl)cyclohexyl]carbonyl}amino)-3-(2′-isopropoxybiphenyl-4-yl)propanoyl]amino}phenyl)-1H-1,2,4-triazol-3-yl]-2,2,3,3-tetrafluoropropanoic acid hydrochloride] | 0.22 µmol/L | 1.2 nM
